The subject of series [1] is ALDH1. The series is described as follows: ALDH1 activity by resorufin propionate after treatment with inhibitors of ALDH 1 and 3 (HL-60 cells). To be noted: inhibitor 8 μM, 6 hours, substrate 10 μM, one hour, P<0.001, FIG. 3. The series is classed as cell-based. Here is the method:
In a 96-well plate, the HL-60 cells were inoculated at a concentration of 50.000 cells/well in RPMI-1640 medium without phenol red supplemented with L-Glutamine, Penicillin, Streptomycin and 10% Fetal Calf Serum (FCS) supplemented with dimethyl ampalthiolester (DIMATE) a specific inhibitor ALDH 1 and 3, morpholino ampal thiolester (MATE) a specific inhibitor of ALDH3, at concentrations of 8 μM respectively. After incubation for 6 hours, the substrates of the different ALDHs respectively resorufine propionate for ALDH1 and resorufin 4-diethylaminobenzoate for ALDH3, were added to a final concentration of 10 μM and then incubated for one hour at +37° C. The plate was then read using an Appliskan fluorescent plate reader (ex=560 nm, Em=600). The data were expressed in relative fluorescence units produced by an equal number of cells.

For the next series, the target named is T1, ALDH1A1 (Homo sapiens, UniProt P00352).
T1 construct: purchased R&D Systems 5869-DH
T1 sequence (P00352 1-501): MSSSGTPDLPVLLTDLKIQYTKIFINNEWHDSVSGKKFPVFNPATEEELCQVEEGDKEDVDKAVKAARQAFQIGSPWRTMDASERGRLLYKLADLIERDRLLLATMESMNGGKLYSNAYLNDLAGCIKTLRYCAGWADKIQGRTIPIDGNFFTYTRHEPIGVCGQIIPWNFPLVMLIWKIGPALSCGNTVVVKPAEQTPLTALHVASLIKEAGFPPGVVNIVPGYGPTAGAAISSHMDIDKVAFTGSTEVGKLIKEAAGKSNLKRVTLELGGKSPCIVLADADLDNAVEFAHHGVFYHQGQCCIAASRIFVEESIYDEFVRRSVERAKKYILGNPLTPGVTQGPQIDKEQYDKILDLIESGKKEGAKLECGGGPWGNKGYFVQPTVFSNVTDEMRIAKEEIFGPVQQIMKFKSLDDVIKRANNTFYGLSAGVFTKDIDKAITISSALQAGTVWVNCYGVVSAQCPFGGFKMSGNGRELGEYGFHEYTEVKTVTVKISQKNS
The series is described as follows: Double localization of resorufin propionate and ALDH1A1 by fluorescent microscopy (NCI-H522 cells). To be noted: DIMATE 5 μM, 6 hours, results not shown. The format is cell-based. On the procedure:
In a 24-well plate with microscope glasses previously washed with ethanol and then placed in the wells, the NCI-H522 cells were added at a cell concentration of 50.000 cells/well and then incubated in RPMI-1640 medium supplemented with L-Glutamine, Penicillin, Streptomycin and 10% Fetal Calf Serum overnight at +37° C. with a 5% CO2 atmosphere. The next day, the culture medium was changed with either DIMATE (5 μM) or the treatment vehicle and incubated for 6 hours. The cells were incubated for 30 minutes with culture medium supplemented with 10 μM of resorufin propionate, were then washed with cold PBS and then fixed with paraformaldehyde for 15 minutes at 37° C. The cells were permeabilized and saturated with PBS; 3% bovine albumin; 0.3% triton for 1 hour. The incubation was carried out with the anti-ALDH1A1 antibody (R&D System, MAB5869) for 1 hour at +37° C., then with an anti-mouse antibody coupled to fluorescein for 1 hour at room temperature in the dark, with PBS washes between the two steps. 3 washes with PBS were carried out then the microscopy glasses were mounted with an anti-decoloration support supplemented with DAPI. The cells were then observed under a microscope.

Series [2] relates to ALDH1. The series is described as follows: Identification of positive ALDH1 cells by flow cytometry via resorufin propionate. The series is classed as cell-based. The settings on record: 15 μM Dimate, 5 hours, FIG. 4. On the procedure: In a 60 mm Petri dish, 500.000 cells were incubated with RPMI-1640 medium supplemented with L-Glutamine, Penicillin, Streptomycin and 10% Fetal Calf Serum overnight at +37° C. with 5% atmosphere. CO2. For the negative control, the cells were taken up in medium supplemented with 15 μM of dimethyl ampal thiolester (Dimate), a specific inhibitor of ALDH1 and 3, then incubated for 5 hours at 37° C., 5% CO2. After trypsination, the cells were taken up in supplemented RPMI medium and centrifuged at 800 g for 5 minutes. The cell pellet was then taken up in fresh supplemented medium containing 10 μM of resorufin propionate, and then incubated for 1 hour in a polycarbonate tube at 37° C., 5% CO2. After incubation, the cells were then centrifuged and then washed in cold PBSx1 and finally taken up in […] of cold PBSx1. The solution was then analyzed by flow cytometry ([…] or red laser).

Substrate in series [3]: CCC(=O)Oc1ccc2nc3ccc(=O)cc-3oc2c1
The series is described as follows: Determination of the Km and Vmax of resorufine propionate with purified ALDH1A1. The format is biochemical. To be noted: other: column ALDH1; substrate range 70-250 μM; pH 6.0; 37.0 °C. On the procedure:
(§1) In 50 μl of 0.1 M phosphate buffer pH6.00; 0.2 M KCl; 2 mM NADP+; 2 mM EDTA, a range of resorufine propionate was made: 250, 200, 150, 125, 100, 90, 80 and 70 μM and 0 μM. 50 μL of recombinant enzyme solution at 2.5 mU/well ALDH1A1 (R&D Sytems, 5869-DH), ALDH2 (abcam, ab87415) and ALDH3A1 (R&D Sytems, 6705-DH) was added. The incubation was carried out for 30 minutes at +37° C. and then the fluorescence reading was made (Em: 590 nm, Ex: 530 nm). The data were then converted to resorufin released (nM·min-1.μg^−1) and Km and Vmax were calculated using the Michaelis-Menten equation using GraphPad Prism 5.0.

Substrate in series [4]: CCC(=O)Oc1ccc2nc3ccc(=O)cc-3oc2c1
The series is described as follows: Determination of the Km and Vmax of resorufine propionate with purified ALDH2. The series is classed as biochemical. To be noted: other: column ALDH2; substrate range 70-250 μM; pH 6.0; 37.0 °C. On the procedure:
as §1

For the molecule `CCCCCCCC(=O)Oc1ccc2c(c1)Oc1cc(OC(=O)CCCCCCC)ccc1C21OC(=O)c2ccccc21` [Fluorescein octanoate, Fluorescein dioctanoate], the melting point lay within 50 to 52 °C.
Still for that read-out and setting: the value for `CC1=C(/C=C/C(C)=C/C=C/C(C)=C/C(=O)Oc2ccc3c(c2)Oc2cc(OC(=O)/C=C(C)/C=C/C=C(C)/C=C/C4=C(C)CCCC4(C)C)ccc2C32OC(=O)c3ccccc32)C(C)(C)CCC1` (centres unmarked) [Fluorescein di-retinoate] was 145 to 150 °C (dec.).
As to `CSC(=O)C#CC(C)(C)N(C)C` [DIMATE, dimethyl ampalthiolester], the “inhibition of fluorescence (resorufin propionate signal)” value in the series on ALDH1 [1] was “significant inhibition of fluorescence”. Also, the “conversion of resorufin propionate to resorufin, fluorescent microscopy” value at ALDH1A1 is “inhibited”. Besides, in the series with ALDH1 [2] (10 μM resorufin propionate), the “positive ALDH1 cells (living cells), flow cytometry” value is listed as “positive ALDH1 cell inhibition is observed”. Further, the viability entry in the series on ALDH1 [2] (Calcein-AM) is on record as “decrease in viability”.
Molecule `CCCCCC(=O)Oc1ccc2c(c1)Oc1cc(OC(=O)CCCCC)ccc1C21OC(=O)c2ccccc21` [Fluorescein di-hexanoate] returned a melting point of 103 to 105 °C.

B1: ALDH1A1 (Homo sapiens) (protein)
chain: T1 sequence (P00352 1-501)
notes: purchased R&D Systems 5869-DH
On to B1, for which, in series [3], the Km amounted to 115 µM and the Vmax came out at 12132 nM/min/µg.

B2: ALDH2 (Homo sapiens) (protein)
chain: SAAATQAVPAPNQQPEVFCNQIFINNEWHDAVSRKTFPTVNPSTGEVICQVAEGDKEDVDKAVKAARAAFQLGSPWRRMDASHRGRLLNRLADLIERDRTYLAALETLDNGKPYVISYLVDLDMVLKCLRYYAGWADKYHGKTIPIDGDFFSYTRHEPVGVCGQIIPWNFPLLMQAWKLGPALATGNVVVMKVAEQTPLTALYVANLIKEAGFPPGVVNIVPGFGPTAGAAIASHEDVDKVAFTGSTEIGRVIQVAAGSSNLKRVTLELGGKSPNIIMSDADMDWAVEQAHFALFFNQGQCCCAGSRTFVQEDIYDEFVERSVARAKSRVVGNPFDSKTEQGPQVDETQFKKILGYINTGKQEGAKLLCGGGIAADRGYFIQPTVFGDVQDGMTIAKEEIFGPVMQILKFKTIEEVVGRANNSTYGLAAAVFTKDLDKANYLSQALQAGTVWVNCYDVFGAQSPFGGYKMSGSGRELGEYGLQAYTEVKTVTVKVPQKNS
notes: purchased abcam ab87415
With B2, in series [4], the Km is 116 µM and the Vmax came to 6693 nM/min/µg.

The values above are taken from US11519014B2, “Specific substrate of an ALDH isoenzyme” (ADVANCED BIODESIGN, priority 2016, dated 2022).
